Results reported in ChEMBL document CHEMBL5046258, “Anti-inflammatory Dimeric Benzophenones from an Endophytic Pleosporales Species” (J Nat Prod, 2022).
pIC50: −log10 of the molar value.

Tested on: RAW264.7
Assay: Antiinflammatory activity in mouse RAW 264.7 cells assessed as inhibition of LPS-induced nitric oxide production measured after 24 hrs by Griess reagent assay
Assay type: functional, cell-based
Details: RAW264.7, 24 h

Row | SMILES | pIC50
1 | Cc1cc2c(C)cc(O)cc2c(=O)o1 | 4.34
2 | COc1cc(O)c(C(=O)c2c(C)cc(O)cc2OC)c(O)c1 | 4.45
3 | COc1cc(C)c(C(=O)c2c(O)cc(OC)cc2O[C@@H]2O[C@H](CO)[C@@H](O)[C@H](O)[C@H]2O)c(OC)c1 | 4.36
4 | COc1cc(C)c(C(=O)c2c(O)cc(O)cc2O)c(OC)c1 | 4.41
5 | COc1cc(O)c2c(=O)c3c(C)c(O)c(OC)cc3oc2c1 | 4.65
6 | COc1cc(C)c(C(=O)c2c(O)cc(OC)c(Cc3c(O)cc(O)cc3CC(C)=O)c2O)c(OC)c1 | 4.74
7 | COc1cc(C)c(C(=O)c2c(O)cc(OC)c(C(CCC(=O)O)c3c(OC)cc(O)c(C(=O)c4c(C)cc(OC)cc4OC)c3O)c2O)c(OC)c1 | 4.81
8 | COc1cc(C)c(C(=O)c2c(O)cc(OC)cc2O[C@@H]2O[C@H](CO)[C@@H](O)[C@H](O)[C@H]2O)c(O)c1 | 4.63
9 | COc1cc(O)c(C(=O)c2c(C)cc(OC)cc2OC)c(O)c1 | 4.34
10 | COc1cc(C)c(C(=O)c2c(O)cc(OC)c(Cc3c(OC)cc(O)c(C(=O)c4c(C)cc(OC)cc4OC)c3O)c2O)c(OC)c1 | 5.06
11 | COc1cc(O)c(C(=O)Oc2c(C)cc(O)cc2OC)c(O)c1 | 4.30
12 | Cc1cc(O)cc2oc(=O)c3c(O)cc(O)cc3c12 [ALTERNARIOL] | 4.29
13 | COc1cc(O)c2c(c1)C1=CC(=O)C(O)=CC1(C)OC2=O (stereo unspecified) [DEHYDROALTENUSIN] | 4.41
14 | C[C@@H]1C[C@H]2[C@@H]3CCC4=CC(=O)C=C[C@]4(C)[C@@]3(F)[C@@H](O)C[C@]2(C)[C@@]1(O)C(=O)CO [DEXAMETHASONE] | 4.65
15 | COc1cc(C)c2c(=O)c3c(O)cc(OC)cc3oc2c1 [LICHEXANTHONE] | 4.71
16 | Cc1cc(O)cc2oc3cc(O)cc(O)c3c(=O)c12 [NORLICHEXANTHONE] | 4.45
